Measured values published in US20260306464A1, “LINAPRAZAN GLURATE FOR TREATING GASTROESOPHAGEAL REFLUX DISEASE (GERD)” (Cinclus Pharma Holding AB (publ), priority 2023, published 2026).

Test system: intragastric pH
Assay: 48-hour intragastric pH-metry, Phase 1 exploratory dose-finding study in healthy subjects
Assay type: in vivo, human
Settings: for Hours with pH >4 (Mean (SD)) / Hours with pH >4 (Median (min, max)) / Percentage of time with pH >4 (Mean) / Percentage of time with pH >4 (Median (min, max)): healthy subjects
Source text: The study was a single-centre, open-label, parallel-group, randomised exploratory dose-finding study designed to evaluate the PK, PD, safety and tolerability of repeated oral doses of linaprazan glurate (LG) at 3 dose levels, in healthy male and female subjects. About 36 subjects were randomised for an estimated total of 12 evaluable subjects per treatment arm.
Subjects came to the clinic for 3 visits. The screening (Visit 1) took place from Day −28 to Day −1 and included an eligibility check and review of health status. At Visit 2, subjects were admitted to the clinic on Day −1 and remained at the clinic until Day 4 for repeated dose of LG administration and safety, PK and PD assessments. The subjects fasted for at least 8 hours before the anticipated dosing time on Day 1. Water, but no other drinks, was allowed as desired except for 1 hour before and 30 minutes after dosing. In the morning of Day 1, subjects were randomised to one of 3 treatment arms: • LG 50 mg BID for 3 days (5 doses, last dose in the morning of Day 3) • LG 100 mg (2×50 mg) BID for 3 days (5 doses, last dose in the morning of Day 3) • LG 150 mg (3×50 mg) BID for 3 days (5 doses, last dose in the morning of Day 3)
Subjects were carefully monitored by clinical staff during and after dosing. […] The pH-metry assessment was started prior to Dose 3 (in the morning of Day 2) and continued for 48 hours, until 24 hours post last dose. Vital signs and ECG were checked at regular intervals and PK sampling was done at selected timepoints. A final end-of-study visit (Visit 3) took place on Day 7 (±2) or after early withdrawal. Each subject was expected to participate in the study for approximately 7 days from the day of randomisation (Day 1, Visit 2) to the End-of Study Visit. The Screening Visit was performed within 28 days prior to randomisation (Day −28 to Day −1).

[1] = 50 mg LG, 1 last dose in the morning (Day 3, "QD")
[2] = 50 mg LG, 2 doses (Day 2, BID), oral
[3] = 100 mg LG, 1 last dose in the morning (Day 3, "QD")
[4] = 100 mg LG, 2 doses (Day 2, BID), oral
[5] = 150 mg LG, 1 last dose in the morning (Day 3, "QD")
[6] = 150 mg LG, 2 doses (Day 2, BID), oral
[7] = 100 or 150 mg, two daily doses (Day 2) vs once daily (Day 3)

For `Cc1cccc(C)c1CNc1cc(C(=O)NCCOC(=O)CCCC(=O)O)cn2c(C)c(C)nc12` [linaprazan glurate, 5-{2-[({8-[(2,6-dimethylbenzyl)amino]-2,3-dimethylimidazo[1,2-a]pyridine-6-yl}carbonyl)-amino]ethoxy}-5-oxopentanoic acid], the “Hours with pH >4 (Mean (SD))” value [1] was 17.04 (5.33) hours, the “Hours with pH >4 (Median (min, max))” value [1] was 15.80 (6.8, 23.8) hours and the “Percentage of time with pH >4 (Mean)” value [1] was 71.15%. The “Percentage of time with pH >4 (Median (min, max))” value (shortened to “Percentage … (Median (min, max))”) [1] was 65.90 (28.6, 99.8) %, the “Hours with pH >4 (Mean (SD))” value [2] was 15.47 (4.83) hours and the “Hours with pH >4 (Median (min, max))” value [2] was 15.65 (8.5, 23.8) hours. For the same compound, the “Percentage of time with pH >4 (Mean)” value [2] was 64.48%, the “Percentage … (Median (min, max))” value [2] was 65.20 (35.4, 99.1) % and the “Hours with pH >4 (Mean (SD))” value [3] was 18.38 (3.84) hours. The “Hours with pH >4 (Median (min, max))” value [3] was 19.30 (11.6, 23.5) hours, the “Percentage of time with pH >4 (Mean)” value [3] was 76.81% and the “Percentage … (Median (min, max))” value [3] was 80.50 (48.9, 97.8) %. For the same compound, the “Hours with pH >4 (Mean (SD))” value [4] was 18.93 (4.83) hours, the “Hours with pH >4 (Median (min, max))” value [4] was 21.30 (7.0, 22.8) hours and the “Percentage of time with pH >4 (Mean)” value [4] was 78.85%. The “Percentage … (Median (min, max))” value [4] was 88.70 (29.1, 95.0) %, the “Hours with pH >4 (Mean (SD))” value [5] was 20.38 (3.51) hours and the “Hours with pH >4 (Median (min, max))” value [5] was 21.05 (15.5, 24.0) hours. For the same compound, the “Percentage of time with pH >4 (Mean)” value [5] was 85.14%, the “Percentage … (Median (min, max))” value [5] was 88.00 (64.9, 99.8) % and the “Hours with pH >4 (Mean (SD))” value [6] was 22.00 (2.60) hours. For the same compound, the “Hours with pH >4 (Median (min, max))” value [6] was 23.05 (16.6, 24.0) hours, the “Percentage of time with pH >4 (Mean)” value [6] was 91.64% and the “Percentage … (Median (min, max))” value [6] was 96.05 (69.3, 99.8) %. For the same compound, the “additional hours with pH>4 (median), BID vs QD” value [7] was “about two” and the “longer time with pH>4, BID vs QD” value [7] was “about 10%”.
